Converted amounts (≈) assume the structure as drawn.
Key:
Format in all cases: cell-based
[1] = test system: Fonsecaea pedrosoi (CFP 00791); assay: NIH Clinical Collection screening for antifungal activity (growth inhibition, OD 530 nm); conditions: Fonsecaea pedrosoi, read-out: % Growth Inhibition
Description: These substances are part of the NIH Roadmap Molecular Libraries Screening Centers Network screening library, a collection of chemically diverse substances in Phase I-III clinical trials. Each substance was initially diluted to 1 mM in DMSO and stored at −20 °C until use. […] The final DMSO concentration corresponded to 0.5% v/v. The inoculum was prepared according to the protocol for filamentous fungi proposed by the European Committee on Antimicrobial Susceptibility Testing—EUCAST, with minor modifications. […] After growth, conidia were suspended in 3 mL of sterile distilled water with 0.1% Tween 20, vortexed, and the concentration adjusted to the 0.5 McFarland scale. The suspension was then diluted 1:10 in order to obtain a final working inoculum at 2–5 × 10^5 CFU/mL. Next, 100 µL of the inoculum was added to each well and the plates incubated at 35 °C for 72–96 h. Negative and positive controls consisted of culture medium alone and drug-free culture medium with the fungal inoculum previously described, respectively. Plates were read using a microplate reader (Epoch, Biotek, Wenusky, VT, USA) with a 530 nm filter to obtain the optical density. All plates were also visually read to confirm the equipment data. A calculation was performed to obtain the percentage of inhibition of fungal growth, according to the formula: (1 − (OD1/OD2)) × 100, where OD1 = optical density of the fungus in the presence of the drug; and OD2 = optical density of the growth control drug-free well.

[2] = test system: Cladophialophora carrionii (CFP 00910); assay: MIC determination (EUCAST, minor modifications); conditions: for Selectivity Index (SI): C. carrionii
Description: (§1) Minimum inhibitory concentrations (MICs) were determined using the method proposed by the European Committee on Antimicrobial Susceptibility Testing (EUCAST), with minor modifications. Hit drugs were serially diluted (80 μM to 0.15625 μM) in RPMI 1640 (twice concentrated, pH 7; supplemented with 2% glucose) buffered with MOPS in 96-well plates. The inoculums of all strains were prepared following the EUCAST protocol. Plates were incubated at 35 °C for 72–96 h. The MIC of the NCC substances was determined as the lowest concentration capable of inhibiting 100% of fungal growth when compared to the growth control well. MIC values were determined in duplicate.

[3] = test system: Exophiala dermatitidis (ATCC 28869); assay: MIC determination (EUCAST, minor modifications); conditions: for Selectivity Index (SI): E. dermatitidis
Description: as §1

[4] = test system: Exophiala heteromorpha (ATCC 28180); assay: MIC determination (EUCAST, minor modifications); conditions: for Selectivity Index (SI): E. heteromorpha
Description: as §1

[5] = test system: Fonsecaea monophora (CFP 00911); assay: MIC determination (EUCAST, minor modifications); conditions: for Selectivity Index (SI): F. monophora
Description: as §1

[6] = test system: Fonsecaea nubica (CFP 00912); assay: MIC determination (EUCAST, minor modifications); conditions: for Selectivity Index (SI): F. nubica
Description: as §1

[7] = test system: Fonsecaea pedrosoi (CFP 00791); assay: MIC determination (EUCAST, minor modifications); conditions: for Selectivity Index (SI): F. pedrosoi
Description: as §1

[8] = test system: Phialophora verrucosa (CFP 00937); assay: MIC determination (EUCAST, minor modifications); conditions: for Selectivity Index (SI): P. verrucosa
Description: as §1

[9] = test system: Rhinocladiela similis (CFP 00790); assay: MIC determination (EUCAST, minor modifications); conditions: for Selectivity Index (SI): R. similis
Description: as §1

[10] = test system: Cladophialophora carrionii (CFP 00910); assay: Urease production in Christensen urea broth (OD 559 nm); conditions: C. carrionii; ½ MIC albendazole; 7 and 12 days, 37 °C
Description: (§2) To verify urease production, three strains: Fonsecaea pedrosoi (CFP 00791) Cladophialophora carrionii (CFP 00910), and Exophiala heteromorpha (ATCC® 28180), corresponding to the three major chromoblastomycosis agents worldwide, were cultured on PDA for seven days and further cultured in Christensen urea broth in the presence and absence of albendazole at a ½ MIC concentration. Candida albicans and Cryptococcus neoformans were used as negative and positive controls of the culture medium, respectively. In brief, fungal suspensions were adjusted to a concentration of 10^6 cells/mL and used for inoculation. A volume of 500 μL of these suspensions were inoculated into 4.5 mL of Christensen urea broth and the tubes were then incubated under agitation (150 rpm) at 37 °C. At the end of seven and 12 days of incubation, the tubes were centrifuged, and a volume of 100 μL of the supernatant was transferred to a 96-well plate; this procedure was performed in triplicate. The absorbances of the samples were read on a SpectraMax plus 384 spectrophotometer (Molecular Devices, San José, CA, USA) at 559 nm, as previously described by Almeida-Paes et al.. Results were analyzed statistically using the two-way ANOVA test with multiple comparisons. p values lower than 0.05 were considered significant.

[11] = test system: Exophiala heteromorpha (ATCC 28180); assay: as above; conditions: E. heteromorpha; ½ MIC albendazole; 7 and 12 days, 37 °C
Description: as §2

[12] = test system: Fonsecaea pedrosoi (CFP 00791); assay: as above; conditions: F. pedrosoi; ½ MIC albendazole; 7 and 12 days, 37 °C
Description: as §2

Structure (SMILES): CCCSc1ccc2nc(NC(=O)OC)[nH]c2c1 [Albendazole]
- inhibition at 10 µM [1]: 98%
- Selectivity Index (SI) ([2]; CC50 HaCat 96 h / MIC): 34.04
- Selectivity Index (SI) ([2]; CC50 Vero 24 h / MIC): 150.94
- Selectivity Index (SI) ([2]; CC50 Vero 96 h / MIC): 104.62
- MIC ([2]; Cladophialophora carrionii): 2.5 µM (≈ 0.663 µg/mL)
- Selectivity Index (SI) ([3]; CC50 HaCat 96 h / MIC): 34.04
- Selectivity Index (SI) ([3]; CC50 Vero 24 h / MIC): 150.94
- Selectivity Index (SI) ([3]; CC50 Vero 96 h / MIC): 104.62
- MIC ([3]; Exophiala dermatitidis, ATCC28869): 2.5 µM (≈ 0.663 µg/mL)
- Selectivity Index (SI) ([4]; CC50 HaCat 96 h / MIC): 34.04
- Selectivity Index (SI) ([4]; CC50 Vero 24 h / MIC): 150.94
- Selectivity Index (SI) ([4]; CC50 Vero 96 h / MIC): 104.62
- MIC ([4]; Exophiala heteromorpha, ATCC28180): 2.5 µM (≈ 0.663 µg/mL)
- Selectivity Index (SI) ([5]; CC50 HaCat 96 h / MIC): 136.16
- Selectivity Index (SI) ([5]; CC50 Vero 24 h / MIC): 603.76
- Selectivity Index (SI) ([5]; CC50 Vero 96 h / MIC): 418.49
- MIC ([5]; Fonsecaea monophora): 0.625 µM (≈ 0.166 µg/mL)
- Selectivity Index (SI) ([6]; CC50 HaCat 96 h / MIC): 136.16
- Selectivity Index (SI) ([6]; CC50 Vero 24 h / MIC): 603.76
- Selectivity Index (SI) ([6]; CC50 Vero 96 h / MIC): 418.49
- MIC ([6]; Fonsecaea nubica): 0.625 µM (≈ 0.166 µg/mL)
- Selectivity Index (SI) ([7]; CC50 HaCat 96 h / MIC): 68.08
- Selectivity Index (SI) ([7]; CC50 Vero 24 h / MIC): 301.88
- Selectivity Index (SI) ([7]; CC50 Vero 96 h / MIC): 209.24
- MIC ([7]; Fonsecaea pedrosoi): 1.25 µM (≈ 0.332 µg/mL)
- Selectivity Index (SI) ([8]; CC50 HaCat 96 h / MIC): 136.16
- Selectivity Index (SI) ([8]; CC50 Vero 24 h / MIC): 603.76
- Selectivity Index (SI) ([8]; CC50 Vero 96 h / MIC): 418.49
- MIC ([8]; Phialophora verrucosa): 0.625 µM (≈ 0.166 µg/mL)
- MIC [9]: 1.25 µM (≈ 0.332 µg/mL)
- Selectivity Index (SI) ([9]; CC50 HaCat 96 h / MIC): 68.08
- Selectivity Index (SI) ([9]; CC50 Vero 24 h / MIC): 301.88
- Selectivity Index (SI) ([9]; CC50 Vero 96 h / MIC): 209.24
- urease secretion [10]: decrease in urease secretion
- urease secretion [11]: decrease in urease secretion
- urease secretion [12]: increased secretion of urease
